Data on one molecule can be found in patent publication US11957684B2, “Treatment of heavy menstrual bleeding associated with uterine fibroids” (Sumitomo Pharma Switzerland GmbH, priority 2016, dated 2024).

This data set can be described thus: clinical. The following applies: female, human, in vivo. Here is the method:
The study was a phase 1, double-blind, randomized, placebo-controlled, sequential-panel, ascending single- and multiple-dose study in healthy premenopausal women. Ten groups, each of 12 healthy premenopausal, adult women, participated in the study (Cohorts 1 to 10).
Cohorts 1 to 6 were referred to as the single-rising dose (SRD) portion of the study, where cohorts were dosed in an escalating fashion. All subjects in a given cohort received their dose of study medication on the same day with the exception of subjects in Cohort 1, which were split into 2 subcohorts (Cohorts 1a and 1b). Dosing between these 2 subcohorts was separated by a minimum of 2 days. Dosing between subsequent cohorts was separated by a minimum of 7 days. The decision to proceed to Cohort 1b was made by the investigator after a minimum 48-hour evaluation of subjects in Cohort 1a. The decision to escalate the dose for the remaining cohorts in the SRD portion was based on review of the safety and pharmacokinetic data for all subjects in the previous cohort.
Subjects were required to fast overnight (minimum 10 hours) prior to dosing and continued to fast for 4 hours following dosing. Subjects were given a menu for the dosing period to include 2 meals and an evening snack, each containing approximately 25% fat content. Six ascending dose groups were planned: 1.0 mg (Cohort 1), 5.0 mg (Cohort 2), 10 mg (Cohort 3), 20 mg (Cohort 4), 40 mg (Cohort 5), and 80 mg (Cohort 6). Subjects in each of Cohorts 1a, 1b, 2, 3, 4, 5 and 6 received drug dosing on a single day only.
Cohorts 1 to 7 were each composed of 12 healthy premenopausal women aged 18 to 49 years, inclusive. […] In one sequence, dosing was under fasting conditions (minimum 10 hours). In the other sequence, dosing was approximately 30 minutes after the start of a high-fat, high calorie breakfast (provided approximately 1000 calories, with 50% of the calories from fat).
Cohorts 8 to 10 were each composed of 12 healthy premenopausal women aged 18 to 45 years, inclusive. Cohorts 8 to 10 were referred to as the multiple-rising dose (MRD) portion of the study, where cohorts were dosed in escalating fashion. The MRD portion was not started until all the blinded safety and pharmacokinetic data from the SRD cohorts had been assessed by the investigator and the sponsor. […] Subjects received the first dose of study medication (Day 1) within 2 to 7 days following the onset of their menstrual cycle. Three ascending dose groups were planned: 10 mg once-daily (QD) (Cohort 8), 20 mg QD (Cohort 9), and 40 mg QD (Cohort 10). Subjects in each of Cohorts 8 to 10 received drug dosing on 14 days (Days 1 to 14).
Subjects had to drink all of the water provided with the dose of study drug. Subjects were able to consume water ad libitum with the exception of 1 hour prior to and 1 hour after drug administration, not including the 240 mL of water taken with dosing.
To assess the food effect, an analysis of variance was performed using Cohort 7 log(mean Cmax), log(area under the plasma drug concentration-time curves [mean plasam AUCs]) as dependent variable; treatment, sequence, period as fixed effects; and subject (seq) as a random effect.

As to `CONC(=O)Nc1ccc(-c2sc3c(c2CN(C)C)c(=O)n(-c2ccc(OC)nn2)c(=O)n3Cc2c(F)cccc2F)cc1` [Compound 1, N-(4-(1-(2,6-difluorobenzyl)-5-((dimethylamino)methyl)-3-(6-methoxy-3-pyridazinyl)-2,4-dioxo-1,2,3,4-tetrahydrothieno[2,3-d]pyrimidin-6-yl)phenyl)-N′-methoxyurea], the CL renal was in the range of 95 to 138 mL/min; the “Tmax, all subjects” value was ≤ 2 h; the half-life was in the range of 14 to 16 h; the “mean Fe (fraction of dose excreted in urine)” value was “less than 3%”. The “median Tmax” value lay within 1 to 1.48 h. Besides, the half-life (1 mg) is ~6 h. The Tmax (80 mg, median Tmax) was found to be 4 h.

By half-life is commonly meant how long it takes for the measured level to halve. By Tmax is commonly meant the time at which the peak concentration occurs.
